“Also recorded” adds a separate entry of the source. Where two headings read alike, the source gives them in different places. Each block holds one compound with its values, some of them ahead of it. Where a SMILES comes first, the peptide text is derived from it. [ ]: non-standard residue; d: D form. The star is where a group is joined. Sta = CC(C)C[C@H](N)[C@@H](O)CC(=O)O; Isovaleryl = CC(C)CC(=O)*
Experiments:
[1] = test system: urinary protease activity at neutral pH (IGFBP-1 proteolysis); experiment: Effect of protease inhibitors, divalent cations and peptides on urinary protease activity at neutral pH (radioiodinated npIGFBP-1, SDS-PAGE, autoradiography); type: biochemical, human; conditions: for effect on proteolysis in urine: not shown; for effect of peptides on IGFBP-1 proteolysis: increasing concentrations pre-incubated with npIGFBP-1 30 min 22 C, then 0.5 μl urine 2 h 37 C (FIG. 8A)
Description: A: Effect of 100 μM pepstatin A, 10 μM E64, 2.5 mM leupeptin, 10 mM PMSF, 100 μM aprotinin, 2.5 mM kallikrein inhibitor and benzamidine (mM) and chymostatin (μM). Molecular mass markers are indicated by the arrows. B: Densitometry measurements of intact IGFBP-1. The results are the mean±SEM, pooled from 6-8 experiments. […] The mean effect of urine pooled from all the experiments is shown in the open bar. *, P<0.05; ** P<0.01 (paired t-test);
(§1) Urine, 0.5 μl, was added and the incubation continued for 2 h at 37 C. The fragments were separated by 14% SDS-PAGE and detected by autoradiography. Molecular mass markers are indicated by the arrows. B: Biotinylated recombinant pIGFBP-1 was bound to streptavidin coated plates and then incubated without (open squares) or with 100 ng IGF-I (closed circles) or des(1-3)IGF-I (open circles). Wells were then incubated with increasing concentration of partially purified azurocidin at […] for 2-h at 37 C. After acidification of all wells, including controls, with 1 M HCl to dissociate bound peptides, radioiodinated IGF-I was added for 2 h at 22 C, unbound tracer was removed by washing, and the bound counts determined;
IGFBP-1 was radioiodinated with ^125I using the chloramine T method. After incubation without and with protease in phosphate buffered saline, pH 7 at 37 C, fragments were separated on 14% non-reducing SDS-PAGE, the gel dried, and visualized by autoradiography.

[2] = test system: neutral IGFBP-1 protease activity in human urine; experiment: Effect of pepstatin on urinary IGFBP-1 protease activity at pH 7 (streptavidin plate, IGF-II binding); type: biochemical; conditions: pepstatin A 10 μM, pH 7, 5 μl urine, 2 h, 37 C
Description: (§2) A-D: Radioiodinated recombinant npIGFBP-1 was subjected to 14% SDS-PAGEalone (*) or after proteolysis for 2 h at 37 C with 0.5 μl urine or 0.25 μl eluate, and the fragments detected by autoradiography. Molecular mass markers are indicated by the arrows. A: pH-dependence of urinary IGFBP-1 protease activity. B: Urine, flowthrough (FT) from the heparin affinity column, and eluate at pH 2 and 7. C: pHdependence of eluate from heparin affinity chromatography. D: Acid-activated protease activity is destroyed by neutralization. Radioiodinated pIGFBP-1 was incubated without (*) and with 0.5 μl urine for 2 h at 37 C at pH 2. Prior to incubation the urine was either untreated (lane a), adjusted to pH 2 for 15 min (lane B) or adjusted to pH 2 for 15 min and then to pH 7 for a further 15 min (lane C). E: Effect of pepstatin. […] The wells were washed, incubated with radioiodinated IGF-II for 2 h at 22 C, washed, and the bound counts detected;
(§3) IGFBP-1 was biotinylated with sulfo-NHS-LC-LC-biotin and bound to streptavidin coated plates, then incubated without and with protease in phosphate buffered saline, pH 7 at 37 C. After washing, IGF-binding fragments were determined by incubation with radioiodinated IGF-I for 2 h at 22 C. Unbound tracer was removed by washing, and the bound counts determined.

[3] = test system: acid-activated IGFBP-1 protease activity in human urine; experiment: Effect of pepstatin on urinary IGFBP-1 protease activity at pH 2 (streptavidin plate, IGF-II binding); type: biochemical; conditions: pepstatin A 10 μM, pH 2, 5 μl urine, 2 h, 37 C
Description: as §2, §3

[4] = test system: MCF-7 human breast cancer cells; experiment: 3H-Thymidine incorporation; type: cell-based; conditions: IGF-II 10 ng/ml, 24 h, serum-free; 6 experiments
Description: Cell studies. MCF-7 human breast cancer cells were maintained in MEM alpha ribonucleic acid-free medium supplemented with 10% foetal bovine serum, 50 Unit/ml penicillin sodium, 50 μg/ml streptomycin sulfate and 2 mM L-glutamine at 37C in 5% CO2 humidified environment.
3H-Thymidine incorporation: Experiments were carried out in 48-well plates, at 70% confluence. After a 20-h incubation in serum-free medium supplemented with 0.1% BSA, the experimental conditions were added for a further 24 h, with ^3H-thymidine (1 μCi/ml) added for the last 4 h. Cells were then washed with ice-cold 0.9% NaCl three times and incubated with ice-cold 5% TCA for 15 min at 22 C. The fixed nucleotides were solubilized in 0.1M NaOH at 22 C and subjected to liquid scintillation counting.
Statistical analyses. The effect of IGF-II and IGFBP-1 in muscle cell culture was analyzed by two-way ANOVA. Where significant differences were observed, comparisons were made using the Tukey test. In the study using MCF-7 breast cancer cells the Wolcoxon Matched Pairs test was used. Statistical significance was set at P<0.05.

[5] = test system: primary human skeletal myotubes; experiment: 2-Deoxyglucose transport (glucose uptake); type: cell-based; conditions: IGF-II 10 ng/ml (submaximal), 90 min
Description: Primary human skeletal myotubes were incubated under serum-free conditions for 24 h. Glucose uptake was determined as described in the Methods. The results are the mean±SEM of four experiments using cells from different individuals each with 3 replicates; and are expressed as the percentage of uptake in the absence of IGF-II or IGFBP-1 for each. The effect of IGF-II is shown in the hatched bars. The effect of pIGFBP-1 on stimulation of glucose uptake by 10 ng/ml IGF-II was analyzed by 2-way ANOVA for each of the 20 ng/ml and 80 ng/ml concentrations; *, P<0.01, **, P<0.001, compared to no IGF-II; ††, P<0.001, compared to no IGFBP-1 or intact IGFBP-1. […]
2-Deoxyglucose transport: Glucose uptake was performed as previously described for primary human muscle cells (Bouzakri et al, Diabetologia, 47, 1314-1323, 2004). […] Cells were then washed four times with pre-warmed buffer (150 mmol/l NaCl, […] KCl, 1.2 mmol/l MgSO4, 1.2 mmol/l CaCL2, 2.5 mmol/l NaH2PO4, 10 mmol/l HEPES, pH 7.4) and glucose uptake was measured for 15 min using [3H]2-deoxyglucose (50 μmol/l, 14,800 Bq/well). Results were expressed as the percentage of glucose uptake in the absence of IGF-II or IGFBP-1.
Statistical analyses. The effect of IGF-II and IGFBP-1 in muscle cell culture was analyzed by two-way ANOVA. […]

[6] = test system: azurocidin-dependent protease activity; experiment: Azurocidin-dependent protease activity on plate-bound biotinylated pIGFBP-1 with pre-bound peptides; type: biochemical, human; conditions: 100 ng peptide on plate-bound pIGFBP-1, partially purified azurocidin, 2 h, 37 C (FIG. 8B)
Description: as §1, §3

[7] = 10 mM cation, pH 7, 0.5 μL urine, 2 h, 37 C

Compound: c1cnc2c(c1)ccc1cccnc12 [1,10-phenothroline]
effect on the degree of IGFBP-1 degradation ([1]; data not shown): no effect

Compound: [Ca+2].[Cl-].[Cl-] [CaCl2]
effect of divalent metal cations on proteolysis (densitometry of intact IGFBP-1) [1, 7]: significant promoting effect

Compound: [Cl-].[Cl-].[Co+2] [CoCl2]
effect of divalent metal cations on proteolysis (densitometry of intact IGFBP-1) ([1]; pH 7): inhibited

Compound: [Cl][Cu][Cl] [CuCl2]
effect of divalent metal cations on proteolysis (densitometry of intact IGFBP-1) [1, 7]: inhibited

Compound: O=C(O)CN(CCN(CC(=O)O)CC(=O)O)CC(=O)O [EDTA]
effect on the degree of IGFBP-1 degradation [1]: no effect

Compound: O=C(O)CN(CCOCCOCCN(CC(=O)O)CC(=O)O)CC(=O)O [EGTA]
effect on the degree of IGFBP-1 degradation ([1]; data not shown): no effect

Compound: [Cl][Ni][Cl] [NiCl2]
effect of divalent metal cations on proteolysis (densitometry of intact IGFBP-1) [1, 7]: inhibited

Compound: O=S(=O)(F)Cc1ccccc1 [PMSF]
effect on protease activity in urine ([1]; 10 mM, pH 7, 0.5 μL urine, 2 h, 37 C): inhibited

Compound: Cc1ccc(S(=O)(=O)N[C@@H](CCCCN)C(=O)CCl)cc1 [TLCK]
effect on proteolysis in urine ([1]; concentration not given): did not

Compound: Cc1ccc(S(=O)(=O)N[C@@H](Cc2ccccc2)C(=O)CCl)cc1 [TPCK]
effect on proteolysis in urine ([1]; 1 mM): inhibited

Compound: CC(C)C[C@H](NC(=O)[C@@H](NC(=O)N[C@@H](Cc1ccccc1)C(=O)O)[C@@H]1CCN=C(N)N1)C(=O)N[C@H](C=O)Cc1ccccc1 [chumostatin]
effect on protease activity in urine ([1]; 10 μM, pH 7, 0.5 μL urine, 2 h, 37 C): inhibited

effect on neutral urinary IGFBP-1 protease activity [2]: not the neutral activity
effect on acid-activated urinary IGFBP-1 protease activity [3]: inhibits
Compound: CC(C)CC(=O)N[C@H](C(=O)N[C@H](C(=O)N[C@@H](CC(C)C)[C@@H](O)CC(=O)N[C@@H](C)C(=O)N[C@@H](CC(C)C)[C@@H](O)CC(=O)O)C(C)C)C(C)C [pepstatin, pepstatin A] (Isovaleryl-VV[Sta]A[Sta]-OH)

Compound: IGF-I: recombinant human insulin-like growth factor I
effect of peptides on IGFBP-1 proteolysis [1]: Partial inhibition

Compound: IGF-II: human insulin-like growth factor II
stimulation of 3H-thymidine incorporation [4]: 2 fold
effect of peptides on IGFBP-1 proteolysis [1]: Partial inhibition
stimulation of glucose uptake [5]: more than 2 fold

Compound: aprotinin
effect of aprotinin on protease activity (IGFBP-1 proteolysis) ([1]; 100 μM aprotinin (FIG. 7A), pH 7, different experiments): either without effect, or even promoted protease activity; also recorded: increasing IGFBP-1 proteolysis

Compound: cyclohexylacetyl-Phe-Arg-Ser-Val-Gln [kallikrein inhibitor]
effect on protease activity in urine ([1]; 100 μM, pH 7, 0.5 μL urine, 2 h, 37 C): inhibited

Compound: des(1-3)-IGF-I: truncated IGF-I from GroPep
effect of peptide on IGFBP-1 proteolysis [6]: no effect

Compound: insulin
effect of peptides on IGFBP-1 proteolysis [1]: no effect

— patent US20100129344A1, “MEDICAL USES AND THERAPIES BASED UPON THE ACTION OF AZUROCIDIN ON IGFBP-1” (priority 2005, published 2010)
